Six molecules from patent US20240174723A1, “STAPLED ANTIMICROBIAL PEPTIDES (STAMPS) AND USES THEREOF” (Lytica Therapeutics, Inc., priority 2021, published 2024) can be followed below.

SMILES strings stand for the structures. Values after ≈ are worked out from the molar mass of the structure shown. Positions of bridges follow the written chain, without caps; N, C: chain ends. Non-standard residues stand in square brackets, D forms with d. Residues, ends and D or L forms follow the SMILES beside them. S5 = C=CCCC[C@](C)(N)C(=O)O; Dab = NCC[C@H](N)C(=O)O; Dap = NC[C@H](N)C(=O)O

The subject of one data set is S. aureus. It counts as cell-based, Staphylococcus aureus. Put shortly: (§1)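 Read-out is visible growth: the MIC is the minimum peptide concentration showing none after 20-24 h at 37 °C. Peptides were serially diluted from water stocks and mixed with log-phase bacteria (final 5×10^5 CFU/ml) in Mueller-Hinton or cation-adjusted Mueller-Hinton broth.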
A further data set deals with K. pneumoniae. It counts as cell-based, Klebsiella pneumoniae. The method, boiled down: as §1
The subject of the next data set is P. aeruginosa. The class given is cell-based, Pseudomonas aeruginosa. Put shortly:
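Broth microdilution adapted from CLSI in MHB or cation-adjusted MHB; log-phase P. aeruginosa at 5×10^5 CFU/ml final with serially diluted stapled peptides. Incubated 20-24 h at 37 °C; MIC is the lowest concentration without visible growth.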

A further data set is described as follows: in vitro. It counts as cell-based. Particulars: human, Inhibitory Concentration at 50% Cytotoxicity (IC50) Human Liver Cells (HepG2). The protocol: Cell culture: RPTEC were maintained in MEM media supplemented with growth factors. HEPG2 cell line was maintained in Eagle's Minimum Essential Medium (EMEM) supplemented with fetal bovine serum to a final concentration of 10%.
48 hours cytotoxicity assay: Cells were plated in a 96-well format, and after 4 hour incubation to allow attachment, serial dilutions of StAMPs from a 5 mg/mL water stock, or vehicle, were then added to the cells in a final volume of 100 μl. After incubating at 37° C. for 48 hours, 100 μl of CellTiter-Glo® reagent was added to the cells, and the plates were incubated 10 minutes at room temperature. Luminescence was then measured on a microplate reader.
Renal toxicity was measured after 90 minutes of incubation, while liver toxicity was measured after 48 hours of incubation with StAMPs. N/A=not tested. The following apply to all peptides (i.e., StAMPs) listed in Tables A-C: Crosslinks (X^1—X^2 and X^3—X^4): (alk); N-terminus: —NH2; C-terminus: amidated with —NH2; counterion: Cl^−. The following apply to all peptides (i.e., StAMPs) listed in Table D: Crosslinks (X^1—X^2 and X^3—X^4): (alk); N-terminus: —NH2; C-terminus: as shown in table; counterion: Cl^−.

In another data set the test system is A. baumannii. It counts as cell-based, Acinetobacter baumannii. The method, boiled down:
as §1

In the next data set the test system is E. coli. The class given is cell-based, Escherichia coli. Put shortly: as §1

`CC(C)[C@@H]1NC(=O)[C@@](C)(NC(=O)[C@H](C)NC(=O)[C@H](CCCCN)NC(=O)CNC(=O)[C@H](Cc2ccccc2)NC(=O)[C@H](CCCCN)NC(=O)[C@H](CCCCN)NC(=O)[C@H](CCCCN)NC(=O)[C@H](CCCCN)NC(=O)[C@H](CN)NC(=O)[C@]2(C)CCCC=CCCC[C@](C)(NC(=O)CN)C(=O)NCC(=O)N[C@@H](CCCCN)C(=O)N[C@@H](Cc3ccccc3)C(=O)N2)CCCC=CCCC[C@@](C)(C(=O)N[C@@H](C)C(=O)N[C@@H](CCCCN)C(=O)N[C@@H](CCCCN)C(=O)NCC(=O)NCC(=O)N[C@@H](CCC(=O)O)C(N)=O)NC(=O)[C@H](CCC(=O)O)NC(=O)CNC1=O` [compound 80] (H-G[S5]GKF[S5][Dap]KKKKFGKA[S5]VGE[S5]AKKGGE-NH2; staple 2-6, 16-20): the “Minimum Inhibitory Concentration (MIC) S. aureus” value with S. aureus was greater than 64 µg/mL. Further, the “Minimum Inhibitory Concentration (MIC) K. pneumoniae” value in the data set on K. pneumoniae is greater than 64 µg/mL. Also, the “Minimum Inhibitory Concentration (MIC) P. aeruginosa” value in the data set with P. aeruginosa was 4 µg/mL. Also, the IC50 at 48 hours in “in vitro” was greater than 200 µg/mL. For the same molecule, the “Minimum Inhibitory Concentration (MIC) A. baumannii” value with A. baumannii came to 8 µg/mL. Further, the “Minimum Inhibitory Concentration (MIC) E. coli” value with E. coli came to 8 µg/mL.

As for `CC(C)[C@@H]1NC(=O)[C@@](C)(NC(=O)[C@H](C)NC(=O)[C@H](CCCCN)NC(=O)CNC(=O)[C@H](Cc2ccccc2)NC(=O)[C@H](CCCCN)NC(=O)[C@H](CCCCN)NC(=O)[C@H](CCCCN)NC(=O)[C@H](CCCCN)NC(=O)[C@H](CCCCN)NC(=O)[C@]2(C)CCCC=CCCC[C@](C)(NC(=O)CN)C(=O)NCC(=O)N[C@@H](CCCCN)C(=O)N[C@@H](Cc3ccccc3)C(=O)N2)CCCC=CCCC[C@@](C)(C(=O)N[C@@H](C)C(=O)N[C@@H](CCN)C(=O)N[C@@H](CCCCN)C(N)=O)NC(=O)[C@H](CCC(=O)O)NC(=O)CNC1=O` [compound 44] (H-G[S5]GKF[S5]KKKKKFGKA[S5]VGE[S5]A[Dab]K-NH2; staple 2-6, 16-20), in the data set with S. aureus, the “Minimum Inhibitory Concentration (MIC) S. aureus” value was 32 µg/mL. For the same molecule, the “Minimum Inhibitory Concentration (MIC) K. pneumoniae” value in the data set with K. pneumoniae was 6 µg/mL. Also, in the data set with P. aeruginosa, the “Minimum Inhibitory Concentration (MIC) P. aeruginosa” value turned out to be 4 µg/mL. The molecule further registered an IC50 at 48 hours in the data set “in vitro” of 87 µg/mL (≈ 34.3 µM). Besides, the “Minimum Inhibitory Concentration (MIC) A. baumannii” value in the data set with A. baumannii was 2 µg/mL. The “Minimum Inhibitory Concentration (MIC) E. coli” value with E. coli came out at 2 µg/mL.

As for `CC(C)[C@@H]1NC(=O)[C@@](C)(NC(=O)[C@H](C)NC(=O)[C@H](CCCCN)NC(=O)CNC(=O)[C@H](Cc2ccccc2)NC(=O)[C@H](CCCCN)NC(=O)[C@H](CCCCN)NC(=O)[C@H](CN)NC(=O)[C@H](CCCCN)NC(=O)[C@H](CN)NC(=O)[C@]2(C)CCCC=CCCC[C@](C)(NC(=O)CN)C(=O)NCC(=O)N[C@@H](CCCCN)C(=O)N[C@@H](Cc3ccccc3)C(=O)N2)CCCC=CCCC[C@@](C)(C(=O)N[C@@H](C)C(=O)N[C@@H](CCCCN)C(=O)N[C@@H](CCCCN)C(=O)NCC(=O)NCC(=O)N[C@@H](CCC(=O)O)C(N)=O)NC(=O)[C@H](CCC(=O)O)NC(=O)CNC1=O` [compound 83] (H-G[S5]GKF[S5][Dap]K[Dap]KKFGKA[S5]VGE[S5]AKKGGE-NH2; staple 2-6, 16-20), in the data set with S. aureus, the “Minimum Inhibitory Concentration (MIC) S. aureus” value is greater than 64 µg/mL. In the data set on K. pneumoniae, the “Minimum Inhibitory Concentration (MIC) K. pneumoniae” value is greater than 64 µg/mL. Also, the “Minimum Inhibitory Concentration (MIC) P. aeruginosa” value with P. aeruginosa worked out at 32 µg/mL. In the data set “in vitro”, the IC50 at 48 hours was greater than 200 µg/mL. For the same molecule, the “Minimum Inhibitory Concentration (MIC) A. baumannii” value in the data set on A. baumannii came out at 64 µg/mL. The “Minimum Inhibitory Concentration (MIC) E. coli” value with E. coli stood at 64 µg/mL.

`CC(C)[C@@H]1NC(=O)[C@@](C)(NC(=O)[C@H](C)NC(=O)[C@H](CCCCN)NC(=O)CNC(=O)[C@H](Cc2ccccc2)NC(=O)[C@H](CCCCN)NC(=O)[C@H](CCCCN)NC(=O)[C@H](CCCCN)NC(=O)[C@H](CCCCN)NC(=O)[C@H](CCN)NC(=O)[C@]2(C)CCCC=CCCC[C@](C)(NC(=O)CN)C(=O)NCC(=O)N[C@@H](CCCCN)C(=O)N[C@@H](Cc3ccccc3)C(=O)N2)CCCC=CCCC[C@@](C)(C(=O)N[C@@H](C)C(=O)N[C@@H](CCCCN)C(=O)N[C@@H](CCCCN)C(N)=O)NC(=O)[C@H](CCC(=O)O)NC(=O)CNC1=O` (single isomer, unassigned) [compound 41]: the “Minimum Inhibitory Concentration (MIC) S. aureus” value in the data set on S. aureus was greater than 64 µg/mL. Further, the “Minimum Inhibitory Concentration (MIC) K. pneumoniae” value in the data set with K. pneumoniae stood at 4 µg/mL. Besides, the “Minimum Inhibitory Concentration (MIC) P. aeruginosa” value in the data set on P. aeruginosa was 4 µg/mL. For the same molecule, in “in vitro”, the IC50 at 48 hours is 115 µg/mL (≈ 45.3 µM). Moreover, the “Minimum Inhibitory Concentration (MIC) A. baumannii” value in the data set with A. baumannii stood at 2 µg/mL. In addition, in the data set on E. coli, the “Minimum Inhibitory Concentration (MIC) E. coli” value was determined as 2 µg/mL.

Turning to `CC(C)[C@@H]1NC(=O)[C@@](C)(NC(=O)[C@H](C)NC(=O)[C@H](CCCCN)NC(=O)[C@H](CO)NC(=O)[C@H](Cc2ccccc2)NC(=O)[C@H](CCCCN)NC(=O)[C@H](CCCCN)NC(=O)[C@H](CCCCN)NC(=O)[C@H](CCCCN)NC(=O)[C@H](CN)NC(=O)[C@]2(C)CCCC=CCCC[C@](C)(NC(=O)CN)C(=O)NCC(=O)N[C@@H](CCCCN)C(=O)N[C@@H](Cc3ccccc3)C(=O)N2)CCCC=CCCC[C@@](C)(C(=O)N[C@@H](C)C(=O)N[C@@H](CCCCN)C(=O)N[C@@H](CCCCN)C(N)=O)NC(=O)[C@H](CCC(=O)O)NC(=O)CNC1=O` [compound 86] (H-G[S5]GKF[S5][Dap]KKKKFSKA[S5]VGE[S5]AKK-NH2; staple 2-6, 16-20), the “Minimum Inhibitory Concentration (MIC) S. aureus” value in the data set with S. aureus is 64 µg/mL. Further, in the data set on K. pneumoniae, the “Minimum Inhibitory Concentration (MIC) K. pneumoniae” value stood at 32 µg/mL. In addition, the “Minimum Inhibitory Concentration (MIC) P. aeruginosa” value in the data set with P. aeruginosa was determined as 1 µg/mL. The molecule also gave an IC50 at 48 hours in “in vitro” greater than 200 µg/mL. For the same molecule, the “Minimum Inhibitory Concentration (MIC) A. baumannii” value with A. baumannii was 1 µg/mL. Moreover, the “Minimum Inhibitory Concentration (MIC) E. coli” value with E. coli came to 2 µg/mL.

With `CC(C)[C@@H]1NC(=O)[C@@](C)(NC(=O)[C@H](C)NC(=O)[C@H](CCCCN)NC(=O)CNC(=O)[C@H](Cc2ccccc2)NC(=O)[C@H](CCCCN)NC(=O)[C@H](CCN)NC(=O)[C@H](CCCCN)NC(=O)[C@H](CCCCN)NC(=O)[C@H](CCCCN)NC(=O)[C@]2(C)CCCC=CCCC[C@](C)(NC(=O)CN)C(=O)NCC(=O)N[C@@H](CCCCN)C(=O)N[C@@H](Cc3ccccc3)C(=O)N2)CCCC=CCCC[C@@](C)(C(=O)N[C@@H](C)C(=O)N[C@@H](CCCCN)C(=O)N[C@@H](CCCCN)C(N)=O)NC(=O)[C@H](CCC(=O)O)NC(=O)CNC1=O` [compound 43] (H-G[S5]GKF[S5]KKK[Dab]KFGKA[S5]VGE[S5]AKK-NH2; staple 2-6, 16-20), in the data set on S. aureus, the “Minimum Inhibitory Concentration (MIC) S. aureus” value was 32 µg/mL. The “Minimum Inhibitory Concentration (MIC) K. pneumoniae” value in the data set with K. pneumoniae was determined as 8 µg/mL. For the same molecule, the “Minimum Inhibitory Concentration (MIC) P. aeruginosa” value in the data set with P. aeruginosa amounted to 4 µg/mL. Also, the IC50 at 48 hours in “in vitro” stood at 127 µg/mL (≈ 50.1 µM). The “Minimum Inhibitory Concentration (MIC) A. baumannii” value in the data set on A. baumannii was 2 µg/mL. Also, the “Minimum Inhibitory Concentration (MIC) E. coli” value in the data set on E. coli came to 4 µg/mL.

As usually defined, the IC50 is the concentration at which inhibition is half-maximal. High values mean weaker potency in that assay, low ones greater potency in that assay.
